The record followed here is patent publication US20220039395A1, “INSECT CONTROL AGENTS” (priority 2018, published 2022).

“Also recorded” adds a separate entry of the source. Ends that are not written are not given here. Alexa‑488‑C5‑maleimide = fluorescent Alexa 488 label coupled to Cys via C5-maleimide

Test [1] has as its system Myzus persicae. Nature of the test: Topical application by spraying, air brush. The settings on record: 750 μl, positive control 28.3 μM, counted 48 hours post spray. The format is in vivo. How it is done: (§1) Aphids were exposed to test peptides in the absence of additional external stress conditions.
(§2) Brassica rapa (Chinese cabbage; Wong Bok) were infested with 30 adult Myzus persicae aphids per plant. Aphids were left at least 2 hours to settle and begin feeding from the host plant.
Spraying took place inside an externally vented fume cupboard. […] To ensure spray tracking, all sprayed solutions had amaranth dye added, allowing the full surface of the plant to be evenly coated with the aerosolised compound.
The plants to be sprayed were placed inside a plastic disposal bag, inside the fume cupboard. This was used to control the area exposed to the aerosolised liquid, to avoid extensive spraying and cleaning inside the fume cupboard. The bag was further lined with absorbent paper towel to again help contain and control spray.
Each experiment had three controls:
i) no vehicle or peptide air spray only, negative control to assess effect of spraying on aphid ability to remain attached to the plant; ii) vehicle spray only (Tween 24 0.1%); and iii) Imidacloprid positive control (28.3 μM).
Imidacloprid was always applied last to prevent any possibility of stray pesticide being left inside the disposal bag and contaminating a test peptide applied plant.
Spray volumes for all solutions for this experiment 750 μl.
A clean air brush (ABEST AC06k30) was loaded with 750 μl of peptide solution diluted in […] 0.1% vehicle. For this experiment there were three test conditions: 1895 alone (1×10^−5M); 2129 alone (1×10^−5M); and a simultaneous co-application of 1895+2129 together (1×10^−5M of each peptide). During application, the air brush was held within the plastic bag and the compressor turned on. The air brush was then gently sprayed back and forth across the plant. […]
Post peptide application, each condition was placed into its own individual Bugdorm (Watkins and Doncaster, 44545), to prevent repulsed or displaced aphids moving from one condition to another. Numbers of alive and dead aphids on the plant were counted 48 hours post spray, and the presence of any fresh nymphs noted. […]

In test [2] the test system is Myzus persicae. Nature of the test: Topical application by spraying, Potter Spray Tower. The settings on record: 3000 μl, positive control 28.3 μM, counted 48 hours post spray. The format is in vivo. How it is done: as §1, §2
Spraying took place inside a designated spray room. To ensure spray tracking, all sprayed solutions had amaranth dye added.
Potter Spray Tower (Burkard Manufacturing) was ‘primed’ by spraying 1000 μl of liquid coating the inside of the tower. Two controls were used:
i) vehicle spray only (Croda ATPlus UEP 100 LQ-(CQ) 0.1% v/v); and ii) Imidacloprid positive control (28.3 μM).
Imidacloprid was always applied last and via a second, separate, Potter Tower, to prevent any possibility of stray pesticide being left inside the tower and contaminating a test peptide-applied plant.
Spray volumes for all solutions were 3000 μl. The 6.9 mm spray head was loaded with 3000 μl of a 1×10^−5M peptide solution diluted in ATPlus 0.1%. After spraying was completed the plant was allowed to rest on the spray platform for 30 seconds to allow settling of the sprayed chemical.
For this experiment there were three test conditions: 1895 alone (1×10^−5M); 2129 alone (1×10^−5M); and a simultaneous co-application of 1895+2129 together (1×10^−5M of each peptide).
Post peptide application, each condition was placed into its own individual Bugdorm (Watkins and Doncaster, 44545), to prevent repulsed or displaced aphids moving from one condition to another. Numbers of alive and dead aphids on the plant were counted 48 hours post spray, and the presence of any fresh nymphs noted. Plants were watered prior to spraying but not afterwards to eliminate the possibility of drowning any aphids present or washing off the sprayed liquid.
Post spraying, the spray head was filled with over 3000 μl of 70% ethanol and sprayed until empty. The spray head was carefully removed and rinsed with 70% ethanol as some amaranth dye was observed on the spray head. […]

For test [3], the system named is aphid. Nature of the test: Topical application of peptides to aphid abdomen by microinjector, mortality. The format is in vivo. The settings on record: 9 nl of 1×10^−5 M peptide in Armid FMPC applied topically to abdomen. How it is done:
For peptides 2315, 2320 and 2125, peptides were diluted individually in an Armid FMPC formulation (AkzoNobel Surface Chemistry, Stenungsund, Sweden) to concentration of 1×10^−5 M. Using a Nanoject II Auto-Nanoliter micro-injector, 9 nl of the peptide solution was applied topically to the abdomen of a pre-reproductive adult aphid, coating the cuticle in the solution. Aphids were returned to the host plant and allowed to recover for 24 h before use in experiments. Control aphids were topically applied with 9 nl of the Armid FMPC formulation and, once again, allowed to recover for 24 h on the host plant before use in experiments.
Peptides were applied topically to insect abdomen by microinjector and the insects returned to the plant. Mortality was assessed after 24 hours. Separate controls were performed for each experiment. A group of 9 or 10 insects was used for each time point, and all experiments were performed 3 times.

Test [4] deals with Aphids. In words: Feeding with peptides in artificial diet, mortality without other stress. The format is in vivo, Myzus persicae. The following applies: for Dead (48 h) / Dead (72 h) / Dead (96 h) / Dead (120 h) / Dead (144 h): artificial diet supplemented with peptide; for effect on mortality in the absence of additional stressors: no additional stress conditions. How it is done: A standard artificial diet for M. persicae was produced as described in Van Emden (2009) and provided the basal diet to which neuropeptide analogues were added for screening purposes. Neuropeptide analogues were diluted individually in the artificial diet to a pre-determined recommended concentration as follows: 1895 (3.5×10^−5 M) and 2019 (2.0×10^−5 M).
Feeding apparatus were constructed using a set-up developed by Sadeghi et al (2009). For this, a piece of Parafilm was stretched over a Plexiglas ring (h=4 cm, Ø=3 cm) and 100 μl of the artificial diet containing the desired neuropeptide analogue was pipette onto the Parafilm membrane. A second piece of Parafilm, stretched to 4 times the original thickness, was stretched over the original layer, sandwiching the artificial diet between two layers of Parafilm. A strip of Parafilm was wrapped around the circumference of the Plexiglas ring, sealing in the diet. A plastic ring (h=1.2 cm, Ø=3.4 cm) was subsequently placed over the Parafilm layer, creating a walled chamber in which to house test aphids in contact with the Parafilm layer containing the artificial diet. Finally, a small Petri dish (h=1 cm, Ø=3.6 cm), modified for ventilation with net cloth, was placed on top of each feeding apparatus to prevent aphid escape.
To obtain aphids for use in experiments, reproducing anholocyclic adults were placed on individual excised leaves of Chinese cabbage at densities of 5 adults per leaf and allowed to reproduce for 24 h. The stem of each excised leaf was held within a 0.5 mL Eppendorf tube containing water via a punctured hole in the Eppendorf lid, and placed individually within a microcage (L=4 cm, Ø=9.5 cm). Following 24 h, adults were removed and resultant first instar nymphs (<1 day old and synchronised in age to within 24 h) retained. Nymphs were allowed to develop on the Chinese cabbage for 5 days. On day 5, (3rd instar) nymphs were transferred onto the artificial diet containing a neuropeptide analogue at densities of 1 per feeding chamber and monitored daily until death. Aphids were transferred to fresh artificial diet (containing neuropeptide analogue) every 5 days. Life history traits recorded include age at first reproduction, number of nymphs produced per 24 h period, and lifespan. From these parameters, lifetime fecundity and daily fecundity were calculated. Control groups were set up involving aphids reared on the host plant, an artificial diet without a neuropeptide analogue, and an artificial diet containing the native CAPA neuropeptide.
Aphids were reared on artificial diet, alone or supplemented with peptide 2129, 2315, 2316 or 2320. A control group (no test peptide) was reared on a host plant. No other stress conditions were applied.
For peptides 2315, 2316 and 2320, mortality was assessed at 48, 72, 96, 120 and 144 hours. A group of 9 or 10 insects was used for each time point, and all experiments were performed at least 4 times.

In test [5] the test system is M. persicae gut, brain and ventral nerve cord. Nature of the test: Receptor mapping assay using fluorescently labelled neuropeptides. It counts as binding, Myzus persicae. The following applies: labelled neuropeptide 10^−7 M; for site of binding in the gut: displaced by excess unlabelled peptide. The procedure: (§3) Aphids were cold anesthetized and the tissue of interest dissected out in a 1:1 solution of Schneider's insect medium and optimized saline.^7,42 The dissected tissue was mounted on a poly-L-lysine-covered 35 mm glass bottom dish containing 1:1 saline. Nuclei were stained via incubation in DAPI (1 μg ml^−1) and a baseline image taken to determine the level of autofluorescence and adjust exposure settings accordingly. All images were recorded on an inverted confocal microscope (Zeiss LSM 510 Meta). A labelled neuropeptide (10^−7 M) was subsequently added and the sample imaged. The concentration of 10^−7 M was chosen for labelled neuropeptides because it represents the minimal concentration required to produce a saturated receptor response, thereby optimizing the conditions for optical detection of ligand-receptor complexes.^7 Following imagining, unlabelled neuropeptide (10^−5 M) was added to the sample and a time-lapse experiment set up to determine if the unlabelled neuropeptide outcompeted the labelled neuropeptide, thus reaffirming the detection of the ligand-receptor complexes. Images were collected every 30 s for a duration of 20-30 m. All images were exported as JPEG files and subsequently viewed in FIJI and Microsoft Illustrator.

Test [6] has as its system M. rosae gut, brain and ventral nerve cord. The description is as above. The format is binding, Macrosiphum rosae. The settings on record: labelled neuropeptide 10^−7 M; for site of binding in the gut: displaced by excess unlabelled peptide. How it is done:
as §3

As for `O=[N+]([O-])NC1=NCCN1Cc1ccc(Cl)nc1` [Imadocloprid, Imidacloprid, reference compound], the “% Lethality” value turned out to be 100% in test [1] and 93% in test [2].
In the case of ASG[βhL]VAFPRV-NH2 [compound 2315], the “Dead (24 h)” value in test [3] is recorded as 33.3%. In test [4], the “Dead (48 h)” value is 45.0%, the “Dead (72 h)” value amounted to 60.0%, the “Dead (96 h)” value was determined as 70.0% and the “Dead (120 h)” value was found to be 77.5%. Besides, in test [4], the “Dead (144 h)” value is 80.0% and the “effect on mortality in the absence of additional stressors” value (“effect on mortality in the absence” for short) is recorded as “increase mortality in the absence of additional stressors”. Moreover, the “effect on mortality in the absence” value in test [4] (listed as 2135) was “increase mortality in the absence of additional stress conditions”.
ASG[βhL]V[βA]FPRV-NH2 [compound 2320]: in test [3], the “Dead (24 h)” value is 33.3%. In test [4], the “Dead (48 h)” value came out at 70%, the “Dead (72 h)” value is reported as 80%, the “Dead (96 h)” value amounted to 80% and the “Dead (120 h)” value is listed as 80%. Moreover, in test [4], the “Dead (144 h)” value turned out to be 85% and the “effect on mortality in the absence” value is given as “increase mortality in the absence of additional stress conditions; also recorded: increase mortality in the absence of additional stressors”.
Regarding “Alexa-488-C5-maleimide-CNSVVLGKKQRFHSWGamide (C(Alexa‑488‑C5‑maleimide)NSVVLGKKQRFHSWG-NH2) [kinin-F]”, in test [5], the “staining of brain and ventral nerve cord (VNC)” value (shortened to “staining”) is given as “staining apparent in a bilateral symmetrical ‘ladder’ of neuronal clusters”; the “site of binding in the gut” value was “bind to the circular and longitudinal muscles of the aphid gut”. Also, in test [6], the “staining” value is reported as “no specific staining”; the “site of binding in the gut” value was “bind to the circular and longitudinal muscles of the aphid gut”.
Regarding “TMR-C5-maleimide-CGANMGLYAFPRVamide (TMR-C5-maleimide on Cys; C-terminal amide; labelled CAPA-1) [CAPA-1-F]”, in test [5], the “staining” value was “no sites of receptor binding in either the brain or the VNC”; the “site of binding in the gut” value is “bind to the circular and longitudinal muscles of the aphid gut”. In addition, in test [6], the “staining” value is reported as “no sites of receptor binding in either the brain or the VNC”; the “site of binding in the gut” value is “bind to the circular and longitudinal muscles of the aphid gut”.
